These results are taken from US20240366551A1, “MIXTURES AND COMPOSITIONS COMPRISING SULFORAPHANE AND GLYCINE” (SOCIETE DES PRODUITS NESTLE S.A., priority 2021, published 2024).

This experiment has as its system Zebrafish larvae. Kind of experiment: Zebrafish larvae survival assay under hydrogen peroxide oxidative stress. It counts as in vivo, zebrafish (AB strain). The conditions noted are these: for larvae survived: compound 12 h before H2O2, survival after 24 h. The protocol:
Zebrafish larvae provide a suitable vertebrate model for studying the oxidative stress […]. […] Survival assays were performed according to a protocol described previously^36 with some modifications. Briefly, wild-type zebrafish larvae
(AB strain, ZFIN ID: ZDB-GENO-960809-7) were used. At 3.5 days post fertilization (dpf), 24 larvae per condition were placed in a 60-mm petri dish with 5 ml of egg water (0.6 g/L Ocean sea salt, Tecniplast). Compounds of interest were directly added into the egg water for 12 h. Subsequently, compounds were removed at 4 days post fertilization (dpf4) and larvae were transferred to a 96-well plate in a volume of 200 μl fresh egg water containing 2.5 mM hydrogen peroxide (H2O2; Sigma Merck). Survival was monitored after 24 h of treatment.

Turning to `C[S+]([O-])CCCCN=C=S` (stereo not drawn) [Sfn, 4-methylsulfinylbutyl isothiocyanate], the “Predicted (LS) mean diff” value (survival, comparison 0 μM vs. treated group, 2.5 mM H2O2, 2 way ANOVA, Tukey's) is reported as −7.077. Further, the larvae survived (vehicle+2.5 mM H2O2+1 μM Sfn) is listed as ~10%.

As for `NCC(=O)O` [L-glycine], the larvae survived (vehicle+2.5 mM H2O2+500 μM L-glycine) is reported as ~10%.
